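Exposure lasted 48 hours, with cells grown in 96-well plates and compounds tested at five concentrations. Here, GI50 denotes the concentration required for 50% inhibition of growth.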 The source made the active and inactive calls. Rule as the data show it: active = GI50 up to about 1.1 µM and inactive = higher.
Key:
Test in all cases: NCI anticancer screen, dose series, 48 h
COLO 205 = tested on: COLO 205
HCT-15 = tested on: HCT-15
LOX IMVI = tested on: LOX IMVI
HOP-92 = tested on: HOP-92
OVCAR-3 = tested on: OVCAR-3
A498 = tested on: A498
Malme-3M = tested on: Malme-3M
HCC 2998 = tested on: HCC 2998
MOLT-4 = tested on: MOLT-4
SF-295 = tested on: SF-295
HOP-62 = tested on: HOP-62
SN12C = tested on: SN12C
SR = tested on: SR
HCT-116 = tested on: HCT-116
NCI-H522 = tested on: NCI-H522
OVCAR-5 = tested on: OVCAR-5
MDA-N = tested on: MDA-N
DU-145 = tested on: DU-145
MCF7 = tested on: MCF7

SMILES | GI50 (COLO 205) | GI50 (HCT-15) [µM] | GI50 (LOX IMVI) | GI50 (HOP-92) | GI50 (OVCAR-3) | GI50 (A498) | GI50 (Malme-3M) | GI50 (HCC 2998) | GI50 (MOLT-4) | GI50 (SF-295) | GI50 (HOP-62) | GI50 (SN12C) | GI50 (SR) | GI50 (HCT-116) | GI50 (NCI-H522) | GI50 (OVCAR-5) | GI50 (MDA-N) | GI50 (DU-145) | GI50 (MCF7)
O=C1[C@H]2ON(c3ccccc3)C(c3ccc(Cl)cc3Cl)[C@H]2C(=O)N1c1ccc(Cc2ccc(N3C(=O)[C@@H]4ON(c5ccccc5)C(c5ccc(Cl)cc5Cl)[C@@H]4C3=O)cc2)cc1 (some centres undefined) | > 100 µM (inactive) | > 100 | > 100 µM (inactive) | > 100 µM (inactive) | > 100 µM (inactive) | > 100 µM (inactive) | 96.8 µM (inactive) | > 100 µM (inactive) | > 100 µM (inactive) | > 100 µM (inactive) | > 100 µM (inactive) | > 100 µM (inactive) | 44.1 µM (inactive) | > 100 µM (inactive) | > 100 µM (inactive) | > 100 µM (inactive) | – | – | –
CCOP(=O)(OCC)C(Nc1ccc(Cl)cc1)c1ccc(F)cc1 (centres undefined) | 29.4 µM (inactive) | 26.7 | 15.7 µM (inactive) | 22 µM (inactive) | 29.5 µM (inactive) | 18.5 µM (inactive) | 19.1 µM (inactive) | 22 µM (inactive) | 23.1 µM (inactive) | 19.8 µM (inactive) | 19 µM (inactive) | 18.4 µM (inactive) | 40.8 µM (inactive) | 19.2 µM (inactive) | 20.3 µM (inactive) | – | 19.9 µM (inactive) | 24.5 µM (inactive) | –
COc1cc2c(cc1OC)[C@H]1C(COC(=O)Nc3ccccc3)CN1CC2 (some centres undefined) | > 100 µM (inactive) | > 100 | 57.9 µM (inactive) | 69.3 µM (inactive) | > 100 µM (inactive) | 70.6 µM (inactive) | > 100 µM (inactive) | 67.6 µM (inactive) | 95.5 µM (inactive) | > 100 µM (inactive) | > 100 µM (inactive) | > 100 µM (inactive) | 75.3 µM (inactive) | > 100 µM (inactive) | > 100 µM (inactive) | > 100 µM (inactive) | – | – | –
CSc1n[n+]2c(s1)SCCC2 | 20.2 µM (inactive) | – | > 100 µM (inactive) | > 100 µM (inactive) | > 100 µM (inactive) | – | > 100 µM (inactive) | > 100 µM (inactive) | > 100 µM (inactive) | > 100 µM (inactive) | 95.5 µM (inactive) | > 100 µM (inactive) | > 100 µM (inactive) | > 100 µM (inactive) | 26.9 µM (inactive) | > 100 µM (inactive) | – | – | –
CCCCCCCCCCCCCCCCCC(=O)O[C@H](COC(=O)CCCCCCCCCCC)COC(=O)CCCCCCCCCCCCCCC | > 100 µM (inactive) | > 100 | > 100 µM (inactive) | > 100 µM (inactive) | > 100 µM (inactive) | > 100 µM (inactive) | > 100 µM (inactive) | > 100 µM (inactive) | > 100 µM (inactive) | > 100 µM (inactive) | > 100 µM (inactive) | > 100 µM (inactive) | > 100 µM (inactive) | > 100 µM (inactive) | – | > 100 µM (inactive) | – | – | –
O[C@]12c3ccccc3C1CCCC2N1CCOCC1 (some centres undefined) | > 100 µM (inactive) | > 100 | > 100 µM (inactive) | – | – | – | > 100 µM (inactive) | – | > 100 µM (inactive) | > 100 µM (inactive) | > 100 µM (inactive) | > 100 µM (inactive) | > 10 µM (inactive) | > 100 µM (inactive) | > 100 µM (inactive) | – | – | – | –
Cc1cc2oc(=O)[nH]c(=S)c2c(C)c1C | > 100 µM (inactive) | > 100 | > 100 µM (inactive) | > 100 µM (inactive) | > 100 µM (inactive) | > 100 µM (inactive) | > 100 µM (inactive) | > 100 µM (inactive) | > 100 µM (inactive) | > 100 µM (inactive) | > 100 µM (inactive) | > 100 µM (inactive) | > 100 µM (inactive) | > 100 µM (inactive) | > 100 µM (inactive) | – | – | – | –
COC(=O)C(C(=O)C(=O)Nc1ccc(OC)cc1[N+](=O)[O-])c1nc2cc(C)c(C)cc2nc1O (centres undefined) | > 100 µM (inactive) | > 100 | > 100 µM (inactive) | > 100 µM (inactive) | > 100 µM (inactive) | > 100 µM (inactive) | > 100 µM (inactive) | > 100 µM (inactive) | – | > 100 µM (inactive) | > 100 µM (inactive) | > 100 µM (inactive) | > 100 µM (inactive) | > 100 µM (inactive) | > 100 µM (inactive) | – | – | – | –
Clc1ccc(-n2nnc(C3=NCCN3)c2-c2ccccc2)cc1 | > 100 µM (inactive) | > 100 | > 100 µM (inactive) | 68.7 µM (inactive) | > 100 µM (inactive) | > 100 µM (inactive) | > 100 µM (inactive) | > 100 µM (inactive) | 78.5 µM (inactive) | > 100 µM (inactive) | > 100 µM (inactive) | > 100 µM (inactive) | > 100 µM (inactive) | > 100 µM (inactive) | > 100 µM (inactive) | > 100 µM (inactive) | – | – | –
CC(=O)COC(=O)CC(C)=O | > 100 µM (inactive) | > 100 | > 100 µM (inactive) | – | > 100 µM (inactive) | – | > 100 µM (inactive) | > 100 µM (inactive) | > 100 µM (inactive) | > 100 µM (inactive) | > 100 µM (inactive) | > 100 µM (inactive) | > 100 µM (inactive) | > 100 µM (inactive) | > 100 µM (inactive) | > 100 µM (inactive) | – | – | –
NS(=O)(=O)c1ccc(Nc2c3ccccc3nc3c(C(=O)N4CCN(CCO)CC4)cccc23)cc1 | > 100 µM (inactive) | > 100 | 92.7 µM (inactive) | > 100 µM (inactive) | > 100 µM (inactive) | > 100 µM (inactive) | > 100 µM (inactive) | > 100 µM (inactive) | 40.2 µM (inactive) | > 100 µM (inactive) | > 100 µM (inactive) | > 100 µM (inactive) | 74.1 µM (inactive) | > 100 µM (inactive) | 80.9 µM (inactive) | > 100 µM (inactive) | – | – | –
NC(CC(=O)OCc1ccccc1)C(=O)OCc1ccccc1 (centres undefined) | > 100 µM (inactive) | > 100 | > 100 µM (inactive) | – | > 100 µM (inactive) | – | – | 33.2 µM (inactive) | – | > 100 µM (inactive) | > 100 µM (inactive) | > 100 µM (inactive) | > 100 µM (inactive) | > 100 µM (inactive) | > 100 µM (inactive) | > 100 µM (inactive) | > 100 µM (inactive) | > 100 µM (inactive) | > 100 µM (inactive)
COc1ccc(NC(=S)NN=C(C)c2cccc(C(C)=NNC(=S)Nc3ccc(OC)cc3)n2)cc1 | 4.45 µM (inactive) | 10.9 | 13.6 µM (inactive) | 45.6 µM (inactive) | 13.9 µM (inactive) | > 100 µM (inactive) | 13.4 µM (inactive) | 37.7 µM (inactive) | 8.55 µM (inactive) | 11.2 µM (inactive) | 26.1 µM (inactive) | > 100 µM (inactive) | 3.13 µM (inactive) | 11.6 µM (inactive) | 33.8 µM (inactive) | > 100 µM (inactive) | – | > 100 µM (inactive) | –
CN(CCc1ccccn1)/[N+]([O-])=N/O.CNCCc1ccccn1 | > 100 µM (inactive) | > 100 | – | > 100 µM (inactive) | > 100 µM (inactive) | – | > 100 µM (inactive) | > 100 µM (inactive) | > 100 µM (inactive) | > 100 µM (inactive) | > 100 µM (inactive) | > 100 µM (inactive) | > 100 µM (inactive) | > 100 µM (inactive) | – | > 100 µM (inactive) | – | – | –
O=C(c1ccc(Cl)cc1)c1ccc(OCCCOc2ccc(C(=O)c3ccc(Cl)cc3)cc2Cl)c(Cl)c1 | > 100 µM (inactive) | > 100 | > 100 µM (inactive) | > 100 µM (inactive) | > 100 µM (inactive) | – | > 100 µM (inactive) | > 100 µM (inactive) | > 100 µM (inactive) | > 100 µM (inactive) | > 100 µM (inactive) | > 100 µM (inactive) | > 100 µM (inactive) | > 100 µM (inactive) | > 100 µM (inactive) | > 100 µM (inactive) | – | – | –
Cc1ccc(S(=O)(=O)NC(=O)NC23CC4CC(CC(F)(C4)C2)C3)cc1 | > 100 µM (inactive) | – | > 100 µM (inactive) | > 100 µM (inactive) | > 100 µM (inactive) | > 100 µM (inactive) | > 100 µM (inactive) | > 100 µM (inactive) | > 100 µM (inactive) | – | > 100 µM (inactive) | – | – | > 100 µM (inactive) | > 100 µM (inactive) | > 100 µM (inactive) | – | – | –
COc1cc(CC2c3cc(OC)c(OC)cc3CCN2C)ccc1O (centres undefined) | – | > 100 | – | – | > 100 µM (inactive) | > 100 µM (inactive) | > 100 µM (inactive) | > 100 µM (inactive) | > 100 µM (inactive) | > 100 µM (inactive) | > 100 µM (inactive) | > 100 µM (inactive) | – | > 100 µM (inactive) | > 100 µM (inactive) | > 100 µM (inactive) | – | – | –
COc1ccc(NC(=O)CC(=O)N2N=C(N(c3ccccc3)c3ccccc3)CC2c2ccccc2)cc1 (centres undefined) | > 100 µM (inactive) | > 100 | > 100 µM (inactive) | > 100 µM (inactive) | > 100 µM (inactive) | > 100 µM (inactive) | – | > 100 µM (inactive) | > 100 µM (inactive) | > 100 µM (inactive) | > 100 µM (inactive) | > 100 µM (inactive) | – | > 100 µM (inactive) | > 100 µM (inactive) | > 100 µM (inactive) | – | > 100 µM (inactive) | > 100 µM (inactive)
